Results from patent publication US20260070902A1, “SULFONYL DERIVATIVES AS CCR6 INHIBITORS” (Hoffmann-La Roche Inc., priority 2022, published 2026).

How the values were obtained:
Type in all cases: cell-based
Human CD4+ T cells = experiment: CD4+ T cells chemotaxis assay towards CCL20; settings: 3 h; for CD4+ T-cell chemotaxis: relative -Log IC50, human CD4+ T cells stimulated with anti-CD3 and anti-CD28, migration towards 150 ng/ml CCL20; for IC50: Homo sapiens, CD4+ T cell, relative -Log IC50, human CD4+ T cells stimulated with anti-CD3 and anti-CD28, migration towards 150 ng/ml CCL20
Excerpt: CD4+ T Cells Chemotaxis Assay Towards CCL20
Human CD4+ T cells were isolated from buffy coats of healthy donors using a CD4+ T Cell Isolation Kit (Miltenyi Biotec130-096-533). Isolated T cells were stimulated overnight with anti-CD3 and anti-CD28 antibodies (Biolegend 300314/302934) in growth medium (RPMI1640, 10% heat-inactivated FBS, 1× pen/strep (Gibco 15140)). For the chemotaxis assay, Corning Transwell plates were used with a pore size of 5 m (Corning 3388). T cells were counted and diluted to 6*10^6 cells/ml in chemotaxis medium (RPMI1640, 1% BSA, pen/strep). Compounds were four-fold serially diluted in DMSO. Further dilutions were made in chemotaxis medium. Cells were incubated with test compounds for 30 min at 37° C. prior to initiation of the assay (3*10^6 cells/ml). Final DMSO concentration in the assay was 0.2%. Wells of the Transwell plates were filled with 200 μl chemotaxis medium containing 150 ng/ml CCL20 (R&D systems 360-MP). 50 μl of the cell/compound suspension was added to the inserts of the Transwell plates (150,000 cells/insert). The Transwell plates were placed in an incubator at 37° C., 5% CO2 for 3 h. After 3 h, the number of migrated cells was quantified using CellTiter Glo (Promega). Percentage inhibition values were calculated based on the low and high signal obtained with 0.2% DMSO in chemotaxis medium without and with CCL20, respectively. The relative −Log IC50 was determined with GraphPad Prism 9 using a four-parameter dose-response model.

human CCR6 [1] = target: T1, human CCR6 (Homo sapiens, UniProt P51684); experiment: Human CCR6-CRE reporter assay; design: The second construct contained the open reading frame of human CCR6 in the pUNO1 backbone; host or cells: 293FT cells; settings: relative -Log IC50; 293FT cells transfected with human CCR6 and CRE-luciferase reporter; 6 μM Forskolin, 6 nM CCL20; 5 h
T1 sequence (P51684 1-374): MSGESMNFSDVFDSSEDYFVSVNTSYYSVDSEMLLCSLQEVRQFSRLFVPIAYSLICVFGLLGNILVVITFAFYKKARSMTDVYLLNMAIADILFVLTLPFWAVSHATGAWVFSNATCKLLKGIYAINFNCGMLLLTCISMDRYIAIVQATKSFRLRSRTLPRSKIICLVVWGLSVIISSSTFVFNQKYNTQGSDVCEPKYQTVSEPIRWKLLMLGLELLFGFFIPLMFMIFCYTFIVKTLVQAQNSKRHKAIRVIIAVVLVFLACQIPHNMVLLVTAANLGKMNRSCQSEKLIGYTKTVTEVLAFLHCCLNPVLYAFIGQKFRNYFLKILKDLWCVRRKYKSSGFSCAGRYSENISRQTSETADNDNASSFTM
How it was run: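 293FT cells transiently co-transfected with human CCR6 and a CRE-luc2P reporter, used 48 h later. Compounds incubated with cells in medium containing 6 μM Forskolin and 6 nM CCL20 (assay-medium levels), 0.1% DMSO final, 5 h at 37° C; luminescence read, relative −Log IC50 from four-parameter fit.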

human CCR6 [2] = target: T1, human CCR6; experiment: CHO-K1 CCR6 chemotaxis assay towards CCL20; settings: relative -Log IC50; CHO-K1 cells overexpressing human CCR6; migration towards 100 ng/ml CCL20; 4 h
How it was run: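 Human CCR6-overexpressing CHO-K1 cells (2*10^6 cells/ml) were preincubated 30 min at 37 °C with compound (0.2% DMSO), then allowed to migrate 4 h through 8 µm Transwell pores toward 100 ng/ml CCL20. Migrated cells were counted by CellTiter Glo. −Log IC50 came from four-parameter fits normalised to DMSO without/with CCL20.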

Structure (SMILES) | IC50 (human CCR6 [1]) [nM] | IC50 (Human CD4+ T cells) [nM] | IC50 (human CCR6 [2]) [nM] | CD4+ T-cell chemotaxis (Human CD4+ T cells)
N=S(=O)(c1ccc(-c2ccnc(C(N)=O)c2)cc1)[C@H]1CC[C@H](Nc2ccc(S(F)(F)(F)(F)F)cc2)CC1 (single isomer, unassigned; (+)) [Example 130, (+)-4-(4-{[trans-4-{[4-(pentafluoro-λ^6-sulfanyl)phenyl]Amino}cyclohexyl]sulfonimidoyl}phenyl)pyridine-2-carboxamide] | 200 | – | – | 7.3
N=S(=O)(c1ccc(-c2ccnc(C(N)=O)c2)cc1)[C@H]1CC[C@H](Nc2ccc(S(F)(F)(F)(F)F)cc2)CC1 (single isomer, unassigned; (-)) [Example 131, (−)-4-(4-{[trans-4-{[4-(pentafluoro-λ^6-sulfanyl)phenyl]Amino}cyclohexyl]sulfonimidoyl}phenyl)pyridine-2-carboxamide] | 316 | – | – | 6.6
Cc1[nH]nc2ccc(-c3ccc(S(=O)(=O)N4CCC(Nc5ccc(S(F)(F)(F)(F)F)cc5)CC4)cc3)cc12 [Example 2, 1-[4-(3-methyl-2H-indazol-5-yl)benzenesulfonyl]-N-[4-(pentafluoro-λ^6-sulfanyl)phenyl]piperidin-4-amine] | 63.1 | 5.01 | – | –
N#Cc1c[nH]c2ccc(-c3ccc(S(=O)(=O)N4CCC(Nc5ccc(S(F)(F)(F)(F)F)cc5)CC4)cc3)cc12 [Example 3, 5-{4-[(4-{[4-(pentafluoro-λ^6-sulfanyl)phenyl]Amino}piperidin-1-yl)sulfonyl]phenyl}-1H-indole-3-carbonitrile] | 50.1 | 15.8 | – | –
N#Cc1n[nH]c2ccc(-c3ccc(S(=O)(=O)N4CCC(Nc5ccc(S(F)(F)(F)(F)F)cc5)CC4)cc3)cc12 [Example 4, 5-{4-[(4-{[4-(pentafluoro-λ^6-sulfanyl)phenyl]Amino}piperidin-1-yl)sulfonyl]phenyl}-1H-indazole-3-carbonitrile] | 50.1 | 0.794 | – | –
N#Cc1c[nH]c2ccc(-c3ccc(S(=O)(=O)[C@H]4CC[C@H](Nc5ccc(S(F)(F)(F)(F)F)cc5)CC4)cc3)cc12 [Example 7, 5-(4-{[trans-4-{[4-(pentafluoro-λ^6-sulfanyl)phenyl]Amino}cyclohexyl]sulfonyl}phenyl)-1H-indole-3-carbonitrile] | 39.8 | 0.501 | – | –
O=C1NCc2ccc(-c3ccc(S(=O)(=O)[C@H]4CC[C@H](Nc5ccc(S(F)(F)(F)(F)F)cc5)CC4)cc3)cc21 [Example 9, 6-(4-{[trans-4-{[4-(pentafluoro-λ^6-sulfanyl)phenyl]Amino}cyclohexyl]sulfonyl}phenyl)-2,3-dihydro-1H-isoindol-1-one] | 79.4 | 10 | – | –
O=S(=O)(c1ccc(-c2ccc3nccn3c2)cc1)[C@H]1CC[C@H](Nc2ccc(S(F)(F)(F)(F)F)cc2)CC1 [Example 12, 4-(pentafluoro-λ^6-sulfanyl)-N-[trans-4-(4-{imidazo[1,2-a]pyridin-6-yl}benzenesulfonyl)cyclohexyl]aniline] | 79.4 | 15.8 | – | –
O=S(=O)(c1ccc(-c2cc(F)c3nccn3c2)cc1)[C@H]1CC[C@H](Nc2ccc(S(F)(F)(F)(F)F)cc2)CC1 [Example 152, 4-(pentafluoro-λ^6-sulfanyl)-N-[trans-4-(4-{8-fluoroimidazo[1,2-a]pyridin-6-yl}benzenesulfonyl)cyclohexyl]aniline] | 100 | – | 10 | –

Continued, in another order:

IC50 (human CCR6 [1]) [nM] | IC50 (Human CD4+ T cells) [nM] | IC50 (human CCR6 [2]) [nM] | Structure (SMILES) | CD4+ T-cell chemotaxis (Human CD4+ T cells)
79.4 | – | – | CC(C)c1nnc2ccc(-c3ccc(S(=N)(=O)[C@H]4CC[C@H](Nc5ccc(S(F)(F)(F)(F)F)cc5)CC4)cc3)cn12 (single isomer, unassigned; (+)) [Example 163, (+)-{4-[3-(propan-2-yl)-[1,2,4]triazolo[4,3-a]pyridin-6-yl]phenyl}[trans-4-{[4-(pentafluoro-λ^6-sulfanyl)phenyl]amino}cyclohexyl](imino)-λ^6-sulfanone] | 7.8
126 | – | – | CC(C)c1nnc2ccc(-c3ccc(S(=N)(=O)[C@H]4CC[C@H](Nc5ccc(S(F)(F)(F)(F)F)cc5)CC4)cc3)cn12 (single isomer, unassigned; (-)) [Example 164, (−)-{4-[3-(propan-2-yl)-[1,2,4]triazolo[4,3-a]pyridin-6-yl]phenyl}[trans-4-{[4-(pentafluoro-λ^6-sulfanyl)phenyl]amino}cyclohexyl](imino)-λ^6-sulfanone] | 6.7
158 | – | 15.8 | O=C1NCCc2sc(-c3ccc(S(=O)(=O)[C@H]4CC[C@H](Nc5ccc(S(F)(F)(F)(F)F)cc5)CC4)cc3)cc21 [Example 153, 2-(4-{[trans-4-{[4-(pentafluoro-λ^6-sulfanyl)phenyl]amino}cyclohexyl]sulfonyl}phenyl)-4H,5H,6H,7H-thieno[3,2-c]pyridin-4-one] | –
158 | – | 31.6 | O=C1NCCCn2cc(-c3ccc(S(=O)(=O)[C@H]4CC[C@H](Nc5ccc(S(F)(F)(F)(F)F)cc5)CC4)cc3)cc21 [Example 155, 8-(4-{[trans-4-{[4-(pentafluoro-λ^6-sulfanyl)phenyl]amino}cyclohexyl]sulfonyl}phenyl)-1H,2H,3H,4H,5H-pyrrolo[1,2-a][1,4]diazepin-1-one] | –
158 | – | 39.8 | O=C1NCCn2cc(-c3ccc(S(=O)(=O)[C@H]4CC[C@H](Nc5ccc(S(F)(F)(F)(F)F)cc5)CC4)cc3)cc21 [Example 156, 7-(4-{[trans-4-{[4-(pentafluoro-λ^6-sulfanyl)phenyl]amino}cyclohexyl]sulfonyl}phenyl)-1H,2H,3H,4H-pyrrolo[1,2-a]pyrazin-1-one] | –
79.4 | – | 2.51 | NC(=O)c1cc(-c2ccc(S(=O)(=O)[C@H]3CC[C@H](Nc4ccc(S(F)(F)(F)(F)F)cc4)CC3)cc2)cn2ccnc12 [Example 157, 6-(4-{[trans-4-{[4-(pentafluoro-λ^6-sulfanyl)phenyl]amino}cyclohexyl]sulfonyl}phenyl)imidazo[1,2-a]pyridine-8-carboxamide] | –
100 | – | 10 | NC(=O)c1cc(-c2ccc(S(=O)(=O)[C@H]3CC[C@H](Nc4ccc(S(F)(F)(F)(F)F)cc4)CC3)cc2)co1 [Example 158, 4-(4-{[trans-4-{[4-(pentafluoro-λ^6-sulfanyl)phenyl]amino}cyclohexyl]sulfonyl}phenyl)furan-2-carboxamide] | –
63.1 | – | 12.6 | Nc1cc(-c2ccc(S(=O)(=O)[C@H]3CC[C@H](Nc4ccc(S(F)(F)(F)(F)F)cc4)CC3)cc2)cn2ccnc12 [Example 159, 6-(4-{[trans-4-{[4-(pentafluoro-λ^6-sulfanyl)phenyl]amino}cyclohexyl]sulfonyl}phenyl)imidazo[1,2-a]pyridin-8-amine] | –
251 | – | 251 | O=S(=O)(c1ccc(-c2ccc3nnc(C4CNC4)n3c2)cc1)N1CCC(Nc2ccc(S(F)(F)(F)(F)F)cc2)CC1 [Example 167, 1-{4-[3-(azetidin-3-yl)-[1,2,4]triazolo[4,3-a]pyridin-6-yl]benzenesulfonyl}-N-[4-(pentafluoro-λ^6-sulfanyl)phenyl]piperidin-4-amine] | –
316 | – | 79.4 | N=S(=O)(c1ccc(-c2ccc3nnc(C(F)F)n3c2)cc1)[C@H]1CC[C@H](Nc2ccc(S(F)(F)(F)(F)F)cc2)CC1 (stereo partly drawn) [Example 169, {4-[3-(difluoromethyl)-[1,2,4]triazolo[4,3-a]pyridin-6-yl]phenyl}[trans-4-{[4-(pentafluoro-λ^6-sulfanyl)phenyl]amino}cyclohexyl](imino)-λ^6-sulfanone] | –
